Some test systems named below: COLO 205 colon; EKVX NSCLC; HCT-116 colon; M14 melanoma; MCF7 breast; NCI-H522 lung; OVCAR-3 ovarian; OVCAR-8 ovarian; SN12C renal; SR leukemia.
What all share (assay): NCI anticancer screen, dose series, 48 h

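Dose response: 5 concentrations. Exposure: 48 h. Format: 96-well plates. Endpoint: linear interpolation; highest concentration if not reached. GI50 is the concentration that inhibits growth by half. Definition used: TGI = concentration required for complete inhibition of growth.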 Bounds are passed on as bounds.

This passage reports TGI and GI50 results from PubChem BioAssay (NCI).

On to `Nc1cc(S(N)(=O)=O)ccc1SSc1ccc(S(N)(=O)=O)cc1N`, for which the TGI in the assay with COLO 205 colon, in the assay with EKVX NSCLC, in the assay with HCT-116 colon, in the assay on M14 melanoma, with MCF7 breast and in the assay on NCI-H522 lung was greater than 100 µM each time. Moreover, the TGI with OVCAR-3 ovarian, in the assay on OVCAR-8 ovarian, with SN12C renal and in the assay on SR leukemia was greater than 100 µM throughout.
As to `CN(C)CCSCCO`, the TGI with COLO 205 colon, with EKVX NSCLC, in the assay on HCT-116 colon, in the assay on M14 melanoma, in the assay on MCF7 breast and with NCI-H522 lung was greater than 100 µM throughout. For the same compound, the TGI in the assay with OVCAR-3 ovarian, in the assay on OVCAR-8 ovarian, with SN12C renal and with SR leukemia was greater than 100 µM each time.
For the compound `Cc1cc(C)c(S(=O)(=O)N(CCc2cccc(Br)c2)Cc2ccc(-c3cccc(S(C)(=O)=O)c3)cc2)c(C)c1`, the GI50 in the assay on COLO 205 colon, with EKVX NSCLC, in the assay on HCT-116 colon, in the assay on M14 melanoma, with MCF7 breast and with NCI-H522 lung was greater than 100 µM each time. The GI50 in the assay on OVCAR-3 ovarian, in the assay on OVCAR-8 ovarian, in the assay with SN12C renal and with SR leukemia was greater than 100 µM in each case. Also, the TGI in the assay with COLO 205 colon, in the assay on EKVX NSCLC, in the assay with HCT-116 colon, in the assay with M14 melanoma, in the assay with MCF7 breast and with NCI-H522 lung was greater than 100 µM in each case. Moreover, the TGI in the assay with OVCAR-3 ovarian, in the assay with OVCAR-8 ovarian, in the assay with SN12C renal and with SR leukemia was greater than 100 µM throughout.
In the case of `c1ccc(B2OCC(C3OB(c4ccccc4)OC4COB(c5ccccc5)OC43)O2)cc1` (stereo not given), the TGI in the assay with COLO 205 colon, in the assay with EKVX NSCLC, with HCT-116 colon, in the assay with M14 melanoma, in the assay on MCF7 breast and in the assay with NCI-H522 lung was greater than 100 µM throughout. Also, the TGI in the assay on OVCAR-3 ovarian, in the assay with OVCAR-8 ovarian, in the assay on SN12C renal and with SR leukemia was greater than 100 µM throughout.
Take `CC1(C)CC([P+](c2ccccc2)(c2ccccc2)c2ccccc2)=NN1`: the GI50 in the assay on COLO 205 colon was 1.44 µM; in the assay with EKVX NSCLC, 2.42 µM; with HCT-116 colon it was 3.04 µM; in the assay with M14 melanoma it was 11.4 µM; in the assay with MCF7 breast, 2.46 µM; with NCI-H522 lung, 2.52 µM. The GI50 in the assay with OVCAR-3 ovarian was 2.18 µM; in the assay on OVCAR-8 ovarian it was 5.92 µM; in the assay with SN12C renal, 4.39 µM; with SR leukemia, 1.2 µM. Further, the TGI in the assay with COLO 205 colon was 3.36 µM; in the assay on EKVX NSCLC, greater than 100 µM; in the assay on HCT-116 colon, greater than 100 µM; with M14 melanoma it was greater than 100 µM; in the assay with MCF7 breast, greater than 100 µM; with NCI-H522 lung it was greater than 100 µM. Moreover, the TGI with OVCAR-3 ovarian was 73.7 µM; in the assay on OVCAR-8 ovarian, greater than 100 µM; in the assay with SN12C renal, greater than 100 µM; with SR leukemia, 5.51 µM.
As for `CN(CC(=O)O)Cc1oc(CO)cc(=O)c1O`, the TGI in the assay on COLO 205 colon, in the assay with EKVX NSCLC, in the assay with HCT-116 colon, in the assay with M14 melanoma, with MCF7 breast and with NCI-H522 lung was greater than 100 µM in each case. Further, the TGI with OVCAR-3 ovarian, in the assay on OVCAR-8 ovarian, in the assay on SN12C renal and with SR leukemia was greater than 100 µM throughout.
Take `Nc1ccc(C(OC(=O)c2cc3ccccc3c(Cc3c(O)c(C(=O)OC(c4ccc(N)cc4)(c4ccc(N)cc4)c4ccc(N)cc4)cc4ccccc34)c2O)(c2ccc(N)cc2)c2ccc(N)cc2)cc1`: the GI50 with COLO 205 colon is 1.21 µM; in the assay with EKVX NSCLC it was 2.37 µM; in the assay with HCT-116 colon it was 0.784 µM; with M14 melanoma it was 0.993 µM; in the assay on MCF7 breast, 0.623 µM; in the assay on NCI-H522 lung, 0.588 µM. Further, the GI50 was 1.25 µM in the assay on OVCAR-3 ovarian, 0.388 µM with OVCAR-8 ovarian, 0.321 µM in the assay with SN12C renal and 4.18 µM in the assay on SR leukemia. Further, the TGI was 3.15 µM with COLO 205 colon; greater than 100 µM in the assay with EKVX NSCLC; 11.4 µM in the assay with HCT-116 colon; 19.1 µM in the assay with M14 melanoma; 12.4 µM in the assay on MCF7 breast; 12.4 µM with NCI-H522 lung. The TGI in the assay on OVCAR-3 ovarian was 3.76 µM; with OVCAR-8 ovarian it was 36.6 µM; in the assay with SN12C renal, 59.1 µM; in the assay with SR leukemia, greater than 100 µM.
